According to patent publication US7385054B2, “Trimeric, macrocyclically substituted halo-benzene derivatives” (Schering AG, priority 2004, dated 2008):

What was measured:
Mouse = test: LD50 (Mouse), acute toxicity; assay type: in vivo
[1] = BuOH/H2O distribution coefficient; assay type: physicochemical; conditions: butanol/water
[2] = Osmolality of the solution at 200 mg (I + Gd)/ml; assay type: physicochemical; conditions: prior-art compounds as Na-salt

| Structure (SMILES) | LD50 (Mouse) (Mouse) | BuOH/H2O Distribution Coefficient [1] | Osmolality 200 mg (I + Gd)/ml [2] [mosmol/l] |
| --- | --- | --- | --- |
| CC(C(=O)NCC(=O)NCCNC(=O)c1c(I)c(C(=O)NCCNC(=O)CNC(=O)C(C)N2CCN(CC(=O)[O-])CCN(CC(=O)[O-])CCN(CC(=O)[O-])CC2)c(I)c(N(C)C(=O)C(C)N2CCN(CC(=O)[O-])CCN(CC(=O)[O-])CCN(CC(=O)[O-])CC2)c1I)N1CCN(CC(=O)[O-])CCN(CC(=O)[O-])CCN(CC(=O)[O-])CC1.[Gd+3].[Gd+3].[Gd+3] (mixture of isomers) [Example 8, 2,4,6-Triiodo-5-(2-{10-[1,4,7-tris-(carboxymethyl)-1,4,7,10-tetraazacyclododecanyl]}propionyl, Gd-complex)methylaminoisophthalic acid-N,N-bis-(3,6-diaza-4,7-dioxo-8-methyloctane-1,5-diyl-{10-[1,4,7-tris-(carboxymethyl)-1,4,7,10-tetraazacyclododecanyl, Gd-complex]})amide] | >12.0 g(I + Gd)/ g(I + Gd)/kg | 0.00005 | 346 |
| CC(C(=O)NCCNC(=O)c1c(I)c(C(=O)NCCNC(=O)C(C)N2CCN(CC(=O)[O-])CCN(CC(=O)[O-])CCN(CC(=O)[O-])CC2)c(I)c(N(C)C(=O)C(C)N2CCN(CC(=O)[O-])CCN(CC(=O)[O-])CCN(CC(=O)[O-])CC2)c1I)N1CCN(CC(=O)[O-])CCN(CC(=O)[O-])CCN(CC(=O)[O-])CC1.[Gd+3].[Gd+3].[Gd+3] (stereo not drawn) [Example 1, 2,4,6-Triiodo-5-(2-{10-[1,4,7-tris-(carboxymethyl)-1,4,7,10-tetraazacyclododecanyl]}propionyl, Gd-complex)methylaminoisophthalic acid-N,N-bis-(3-aza-5-methyl-4-oxopentane-1,5-diyl-{10-[1,4,7-tris-(carboxymethyl)-1,4,7,10-tetraazacyclododecanyl,Gd-complex]})amide] | >12.0 g(I + Gd)/ g(I + Gd)/kg | 0.00005 | 358 |
| CN(C(=O)CN1CCN(CC(=O)[O-])CCN(CC(=O)[O-])CCN(CC(=O)[O-])CC1)c1c(I)c(C(=O)NCCNC(=O)CN2CCN(CC(=O)[O-])CCN(CC(=O)[O-])CCN(CC(=O)[O-])CC2)c(I)c(C(=O)NCCNC(=O)CN2CCN(CC(=O)[O-])CCN(CC(=O)[O-])CCN(CC(=O)[O-])CC2)c1I.[Gd+3].[Gd+3].[Gd+3] [Example 5, 2,4,6-Triiodo-5-({10-[1,4,7-tris-(carboxymethyl)-1,4,7,10-tetraazacyclododecanyl]}acetyl, Gd-complex)methylaminoisophthalic acid-N,N-bis-(3-aza-4-oxopentane-1,5-diyl-{10-[1,4,7-tris-(carboxymethyl)-1,4,7,10-tetraazacyclododecanyl, Gd-complex]})amide] | >12.0 g(I + Gd)/ g(I + Gd)/kg | 0.00006 | 371 |
| O=C([O-])CN1CCN(CC(=O)[O-])CCN(CC(=O)NCCNC(=O)c2c(I)c(NC(=O)CN3CCN(CC(=O)[O-])CCN(CC(=O)[O-])CCN(CC(=O)[O-])CC3)c(I)c(C(=O)NCCNC(=O)CN3CCN(CC(=O)[O-])CCN(CC(=O)[O-])CCN(CC(=O)[O-])CC3)c2I)CCN(CC(=O)[O-])CC1.[Gd+3].[Gd+3].[Gd+3] [Example 7, 2,4,6-Triiodo-5-({10-[1,4,7-tris-(carboxymethyl)-1,4,7,10-tetraazacyclododecanyl]}acetyl, Gd-complex)aminoisophthalic acid-N,N-bis-(3-aza-4-oxopentane-1,5-diyl-{10-[1,4,7-tris-(carboxymethyl)-1,4,7,10-tetraazacyclododecanyl, Gd-complex]})amide] | >12.0 g(I + Gd)/ g(I + Gd)/kg | 0.00005 | 334 |
